Reference: patent US20240424112A1, “TETRAHYDROISOQUINOLINE COMPOUNDS THAT ARE KEAP1 BINDERS” (C4X Discovery Limited, priority 2021, published 2024)

What was measured:
BRD4 = biological target: T1, BRD4 (Homo sapiens, UniProt O60885); experiment: BRD4 degradation assay (Western blot, MDA-MB-468 cells), isoform not given; assay type: cell-based
T1 construct: endogenous in cells; host or cells: MDA-MB-468
Experimental: (§1) BRD4 Degradation Assay Protocol Summary
MDA-MB-468 cells were cultured routinely in DMEM supplemented with 10% heat inactivated FBS and 1% Penicillin-Streptomycin (Thermofisher Scientific) at 37° C. 5% CO2. Cells were seeded in 6-well plates at 4*10^5 cells per well and left to adhere overnight. Example compounds were solubilised in DMSO to make 10 mM stocks followed by serial dilutions in DMSO to 200× final concentration. These were further diluted in culture media to give 20× treatment stocks before addition to cells to a 1× final concentration. Cells were then incubated at 37° C. 5% CO2 for 24 or 48 hours after which cells were lysed in RIPA buffer supplemented with cOmplete Mini Protease Inhibitor Cocktail and PhosSTOP™ (Roche). Lysates were clarified by centrifugation at 13,000 RPM for 10 minutes and the protein concentration of the resulting supernatants determined by BCA assay (ThermoFisher Scientific) as per manufacturer's instructions. Lysates were denatured and reduced in NuPAGE LDS sample buffer and sample reducing agent before 10 μg was loaded onto NuPAGE […] Tris-Acetate Mini Protein Gels (ThermoFisher Scientific). […] Percentage degradation of BRD4 relative to the DMSO treated negative control was calculated as: =100−(signal of interest/signal of control sample*100). […]

BRD4 long isoform = biological target: T2, BRD4 long isoform (Homo sapiens, UniProt O60885); experiment: BRD4 degradation assay (Western blot, MDA-MB-468 cells), long isoform; assay type: cell-based; details: MDA-MB-468, n = 2
T2 construct: endogenous in cells; host or cells: MDA-MB-468
Experimental: as §1
(§2) MDA-MB-468 cells were cultured routinely in DMEM supplemented with 10% heat inactivated FBS and 1% Penicillin-Streptomycin (Thermofisher Scientific) at 37° C. 5% CO2. Cells were seeded in 6-well plates at 4*10^5 cells per well and left to adhere overnight. Example compounds were solubilised in DMSO to make 10 mM stocks followed by serial dilutions in DMSO to 200× final concentration. These were further diluted in culture media to give 20× treatment stocks before addition to cells to a 1× final concentration. Cells were then incubated at 37° C. 5% CO2 for 24 or 48 hours after which cells were lysed in RIPA buffer supplemented with cOmplete Mini Protease Inhibitor Cocktail and PhosSTOP™ (Roche). Lysates were clarified by centrifugation at 13,000 RPM for 10 minutes and the protein concentration of the resulting supernatants determined by BCA assay (ThermoFisher Scientific) as per manufacturer's instructions. Lysates were denatured and reduced in NuPAGE LDS sample buffer and sample reducing agent before 10 μg was loaded onto NuPAGE […] Tris-Acetate Mini Protein Gels (ThermoFisher Scientific). Protein was transferred to nitrocellulose membranes using a Trans-Blot Turbo Transfer System (Bio-Rad) before blocking for 1 hour in Intercept (TBS) Blocking Buffer (Li-Cor). Membranes were then incubated overnight with BRD4 (ab128874; Abcam) and α-tubulin (T6074; Sigma-Aldrich) antibodies diluted 1:2000 and 1:16,000 respectively in Tris-buffered saline 0.05% Tween 20 (TBS-T). The following day, membranes were washed with TBS-T before addition of anti-rabbit IRDye 800 CW and anti-mouse IRDye 680LT secondary antibodies (LiCor) (diluted 1:10,000 in TBS-T) for one hour. Membranes were then washed with TBS-T before imaging using a LICOR Odyssey Infrared Imaging System with Image Studio Ver 5.2 software (LiCor). Densitometry analysis was carried out in the LiCor image studio software where BRD4 signal was normalised to α-tubulin signal. Percentage degradation of BRD4 relative to the DMSO treated negative control was calculated as: =100−(signal of interest/signal of control sample*100). BRD4 degradation by dBET1 was used as positive control for each plate. Data obtained for the percentage degradation of BRD4 upon treatment with the Example compounds 1-6 and Comparative Example compounds 1-3 at 24 hour incubation are shown in Table 2 and with 48 hour incubation are shown in Table 3.

[1] = test system: NRF2 mediated gene NAD(P)H:quinone acceptor oxidoreductase 1 (NQO1) mRNA in BEAS-2B cells; experiment: Beas2B NQO1 mRNA cell based assay; details: Homo sapiens, 24 h, vs vehicle (0.1% DMSO), read-out: EC50 (increase in NQO1 mRNA)
Experimental: Beas2B NQO1 mRNA Cell Based Assay
The up-regulation of the NRF2 mediated gene NAD(P)H:quinone acceptor oxidoreductase 1 (NQO1) was measured using the following assay method: BEAS-2B cells (ATCC CRL-9609) were plated in 96-well clear plates at 20,000 cells/well in 75 μL of cell culture media and incubated overnight (37° C., 5% CO2). On day 2, 25 μL of compound or controls were added to the cells for 24 h. On day 3, the medium was aspirated from the plate and the Cells-to-CT™ 1-Step TaqMan® Kit (Ambion A25603) was used to perform expression analysis directly from cultured cells without RNA purification according to the manufacturer's instructions.
Briefly, cells were washed with ice cold PBS and 22.5 μL of room-temperature DNase/Lysis solution was added to the cells and incubated at room temperature for 5 minutes. To stop the reaction, 2.25 μL of stop solution was added to the cell lysate. The samples were diluted 1:5 using nuclease free water and 2.5 μL transferred into the PCR plate. Real-time PCR was performed using the C-1000 Thermal Cycler (Bio-Rad) using human beta actin as the internal control. The cDNA was amplified with a specific primer for NQO1 using the 1-step RT-PCR master mix (Ambion Cells-to-CT™ 1-Step TaqMan® Kit A25603). The primers/probes sets that were used for amplification of cDNA were obtained from TaqMan Gene Expression Assays (Applied Biosystems). The comparative CT (ΔΔCT) relative quantification method was used to calculate the relative mRNA level of the target gene NQO1 as described in the Applied Biosystems Chemistry Guide. The data are expressed as an increase in target gene mRNA compared to vehicle (0.1% DMSO) control and the EC50 values were determined by fitting the data to a four parameter logistic fit using XLfit or XE Runner within ActivityBase.

BRD4 short isoform = biological target: T3, BRD4 short isoform (Homo sapiens, UniProt O60885); experiment: BRD4 degradation assay (Western blot, MDA-MB-468 cells), short isoform; assay type: cell-based; details: MDA-MB-468, n = 2
T3 construct: endogenous in cells; host or cells: MDA-MB-468
Experimental: as §1, §2

degradation of BRD4 (BRD4; at 0.01 μM): up to 75%
% Mean Degradation of BRD4 (BRD4 long isoform; 24 h, 0.01 μM): 75%
% Mean Degradation of BRD4 (BRD4 long isoform; 24 h, 0.1 μM): 99%
% Mean Degradation of BRD4 (BRD4 long isoform; 24 h, 1 μM): 101%
% Mean Degradation of BRD4 (BRD4 long isoform; 48 h, 0.01 μM): 74%
% Mean Degradation of BRD4 (BRD4 long isoform; 48 h, 0.1 μM): 97%
% Mean Degradation of BRD4 (BRD4 long isoform; 48 h, 1 μM): 99%
% Mean Degradation of BRD4 (BRD4 short isoform; 24 h, 0.01 μM): 69%
% Mean Degradation of BRD4 (BRD4 short isoform; 24 h, 0.1 μM): 97%
% Mean Degradation of BRD4 (BRD4 short isoform; 24 h, 1 μM): 96%
% Mean Degradation of BRD4 (BRD4 short isoform; 48 h, 0.01 μM): 68%
% Mean Degradation of BRD4 (BRD4 short isoform; 48 h, 0.1 μM): 93%
% Mean Degradation of BRD4 (BRD4 short isoform; 48 h, 1 μM): 100%
Structure (SMILES): Cc1sc2c(c1C)C(c1ccc(Cl)cc1)=N[C@@H](CC(=O)NCC(=O)NCCn1nnc(COc3ccc(Cl)c4c3[C@@H](CN3CC5(CC5)CC3=O)N(C(=O)[C@@H]3CCCC[C@]3(C)C(=O)O)CC4)c1C)c1nnc(C)n1-2 [Example 1, (1S,2R)-2-((S)-5-Chloro-8-((1-(2-(2-(2-((S)-4-(4-chlorophenyl)-2,3,9-trimethyl-6H-thieno[3,2-f][1,2,4]triazolo[4,3-a][1,4]diazepin-6-yl)acetamido)acetamido)ethyl)-5-methyl-1H-1,2,3-triazol-4-yl)methoxy)-1-((6-oxo-5-azaspiro[2.4]heptan-5-yl)methyl)-1,2,3,4-tetrahydroisoquinoline-2-carbonyl)-1-methylcyclohexane-1-carboxylic acid]
target protein (BRD4) degradation (BRD4; at ≥0.1 μM): almost complete target protein degradation
EC50 [1]: 187 nM
